In US9340538B2, “Dihydropyrimidine compounds and their application in pharmaceuticals” (SUNSHINE LAKE PHARMA CO., LTD., priority 2013, dated 2016):
Like-named read-outs stand apart in the source and are kept apart here.

Experiments:
HBV = test: In-vitro anti-HBV activity in stable HBV-producing cell line (HepG2.2.15), HBV DNA in culture fluid by qPCR; type: cell-based; settings: Hepatitis B virus, read-out: HBV (% Inh.) (500 nmol)
Experimental: In-Vitro Anti-HBV Activity of Compounds in Stable HBV-Producing Cell Line (HepG2.2.15)
HBV DNA contents in cell culture fluid were detected by the qPCR-based assay and percents of HBV inhibition by compounds (% Inh) were calculated. Specific procedures are as follows:
HepG2.2.15 cells were seeded into each well of 96-well plates, 40,000 cells per well. Cells were treated with cell culture medium containing compounds 24 hours after cell seeding. Each compound to detected percent inhibition was in duplicate and the final concentration of each compound was 500 nmol in each well. The compound-containing mediums were refreshed on day 4 post cell seeding. Culture media were collected from the HepG2.2.15 plates on day 7 post cell seeding followed by HBV DNA extraction.
HBV DNA extraction: using QIAamp 96 DNA Blood Kit (QIAGEN 51161).
PCR for quantification: PCR mix was prepared according to PCR system; PCR mix was dispensed to 384-well optical reaction plates (special for quantification); The standard diluted proportionally was added; The sample was added; The plates were sealed with optical adhesive film; PCR system was performed according to programs.
Percent of HBV inhibition of DNA replication by compound was calculated using the following equation: % Inh.=[1-HBV DNA quantity of sample/HBV DNA quantity of DMSO control]*100. II. Assay Results

[1] = Test compounds' PK assay in ICR mice; type: in vivo; settings: mouse, plasma, 10 mg/kg; for AUC(0-t): AUC in 0-24 hours; for AUC(0-inf): AUC in 0 hour to infinite time
Experimental: The test compounds were poured into ICR mice stomach through mouth with 10 mg/kg or administered 2 mg/kg or 10 mg/kg to ICR mice by tail-intravenous injection. Blood sample of orbital vein was taken at 0.083, 0.25, 0.5, 1, 2, 4, 6, 8 and 24 hours after administration, and collected in anticoagulation tube added with EDTA-K2. The test compounds were extracted from plasma samples and chromatographed on a tandem mass spectrometer. Quantitation was performed using multiple reaction monitoring (MRM). Pharmacokinetic parameters were calculated using WinNonlin 6.1 software with non compartment model.

[2] = 168 h, 500 nmol final concentration, HepG2.2.15 cells, HBV DNA in culture media on day 7 post seeding, vs DMSO control

Compound CCOC(=O)C1=C(CN2CCOC[C@H]2C(=O)NCCOC(C)=O)NC(c2nccs2)=NC1c1ccc(F)cc1Br (stereo partly drawn) [Example 55, Ethyl 6-(((S)-3-((2-acetoxyethyl)carbamoyl)morpholino)methyl)-4-(2-bromo-4-fluorophenyl)-2-(thiazol-2-yl)-1,4-dihydropyrimidine-5-carboxylate] has an inhibition at 0.5 µM (HBV; [2]) of 93%.

Compound CCOC(=O)C1=C(CN2CCOC[C@H]2C(=O)N(C)OC)NC(c2nccs2)=NC1c1ccc(F)cc1Br (stereo partly drawn) [Example 60, Ethyl 4-(2-bromo-4-fluorophenyl)-6-(((S)-3-(methoxy(methyl)carbamoyl)morpholino)methyl)-2-(thiazol-2-yl)-1,4-dihydropyrimidine-5-carboxylate] has an inhibition at 0.5 µM (HBV; [2]) of 94%.

For CCOC(=O)C1=C(CN2CCOC[C@H]2C(=O)O)NC(c2nc(CC(=O)OC)cs2)=NC1c1ccc(F)cc1Br (stereo partly drawn) [Example 61, (3S)-4-((6-(2-bromo-4-fluorophenyl)-5-(ethoxycarbonyl)-2-(4-(2-methoxy-2-oxoethyl)thiazol-2-yl)-3,6-dihydropyrimidin-4-yl)methyl)morpholine-3-carboxylic acid], the inhibition at 0.5 µM (HBV; [2]) was 91.1%.

CCOC(=O)C1=C(CN2CCO[C@H](CO)C2)NC(c2nccs2)=NC1c1ccc(F)cc1Br (stereo partly drawn) [Example 66, Ethyl 4-(2-bromo-4-fluorophenyl)-6-(((S)-2-(hydroxymethyl)morpholino)methyl)-2-(thiazol-2-yl)-1,4-dihydropyrimidine-5-carboxylate] gave an inhibition at 0.5 µM (HBV; HepG2.2.15, 168 h) of 88.8%.

CCOC(=O)C1=C(CN2CCOCC2C(=O)O)NC(c2nnc(C)s2)=NC1c1ccc(F)cc1Br (stereo not drawn) [Example 69, 4-((6-(2-bromo-4-fluorophenyl)-5-(ethoxycarbonyl)-2-(5-methyl-1,3,4-thiadiazol-2-yl)-3,6-dihydropyrimidin-4-yl)methyl)morpholine-3-carboxylic acid] showed an inhibition at 0.5 µM (HBV; [2]) of 36.5%.

With CCOC(=O)C1=C(CN2CCOCC2C(=O)O)NC(c2nncs2)=NC1c1ccc(Cl)cc1Cl (stereo not drawn) [Example 70, 4-((6-(2,4-dichlorophenyl)-5-(ethoxycarbonyl)-2-(1,3,4-thiadiazol-2-yl)-3,6-dihydropyrimidin-4-yl)methyl)morpholine-3-carboxylic acid] the inhibition at 0.5 µM (HBV; [2]) was 63.6%.

CCOC(=O)C1=C(CN2CCOCC2C(=O)O)NC(c2nncs2)=NC1c1ccc(F)cc1Br (stereo not drawn) [Example 71, 4-((6-(2-bromo-4-fluorophenyl)-5-(ethoxycarbonyl)-2-(1,3,4-thiadiazol-2-yl)-3,6-dihydropyrimidin-4-yl)methyl)morpholine-3-carboxylic acid] showed an inhibition at 0.5 µM (HBV; [2]) of 43.4%.

In the case of CCOC(=O)C1=C(CN2CCOC(CC(=O)O)C2)NC(c2nccs2)=NC1c1ccc(F)cc1Br (stereo not drawn) [Example 74, 2-(4-((6-(2-bromo-4-fluorophenyl)-5-(ethoxycarbonyl)-2-(thiazol-2-yl)-3,6-dihydropyrimidin-4-yl)methyl)morpholin-2-yl)acetic acid], the inhibition at 0.5 µM (HBV; [2]) is reported as 91.7%, the clearance ([1]; iv) is reported as 15.5 mL/min/kg and the half-life ([1]; iv) is reported as 1.02 h. For the same compound, the AUC(0-t) ([1]; iv) was 10600 ng·h/mL, the AUC(0-inf) ([1]; iv) was 11200 ng·h/mL and the Vd ([1]; iv, read-out: Vss) was 0.82 L/kg. For the same compound, the Cmax ([1]; po) was 7330 ng/mL, the Tmax ([1]; po) was 0.25 h and the half-life ([1]; po) was 1.18 h. For the same compound, the AUC(0-t) ([1]; po) was 7890 ng·h/mL, the AUC(0-inf) ([1]; po) was 8160 ng·h/mL and the bioavailability ([1]; po, read-out: F (absolute bioavailability)) was 74.2%.

For CCOC(=O)C1=C(CN2CCOCC2C(=O)OC(C)C)NC(c2nccs2)=NC1c1ccc(F)cc1Br (stereo not drawn) [Example 77, Isopropyl 4-((6-(2-bromo-4-fluorophenyl)-5-(ethoxycarbonyl)-2-(thiazol-2-yl)-3,6-dihydropyrimidin-4-yl)methyl)morpholine-3-carboxylate], the inhibition at 0.5 µM (HBV; [2]) was 91.9%.

With CCOC(=O)C1=C(CN2CCOCC2C(=O)OC(C)C)NC(c2nccs2)=NC1c1ccc(Cl)cc1Cl (stereo not drawn) [Example 78, Isopropyl 4-((6-(2,4-dichlorophenyl)-5-(ethoxycarbonyl)-2-(thiazol-2-yl)-3,6-dihydropyrimidin-4-yl)methyl)morpholine-3-carboxylate] the inhibition at 0.5 µM (HBV; [2]) was 87.9%.

For CCOC(=O)C1=C(CN2CCOCC2C(=O)OCOC(=O)OC(C)C)NC(c2nccs2)=NC1c1ccc(Cl)cc1Cl (stereo not drawn) [Example 80, ((Isopropoxycarbonyl)oxy)methyl 4-((6-(2,4-dichlorophenyl)-5-(ethoxycarbonyl)-2-(thiazol-2-yl)-3,6-dihydropyrimidin-4-yl)methyl)morpholine-3-carboxylate], the inhibition at 0.5 µM (HBV; [2]) was 91.9%.

CCOC(=O)C1=C(CN2CCOCC2C(=O)NC(C)C)NC(c2nccs2)=NC1c1ccc(Cl)cc1Cl (stereo not drawn) [Example 81, Ethyl 4-(2,4-dichlorophenyl)-6-((3-(isopropylcarbamoyl)morpholino)methyl)-2-(thiazol-2-yl)-1,4-dihydropyrimidine-5-carboxylate] gave an inhibition at 0.5 µM (HBV; [2]) of 91.9%.

For CCOC(=O)C1=C(CN2CCOCC2C(=O)NC(C)C)NC(c2nccs2)=NC1c1ccc(F)cc1Br (stereo not drawn) [Example 82, Ethyl 4-(2-bromo-4-fluorophenyl)-6-((3-(isopropylcarbamoyl)morpholino)methyl)-2-(thiazol-2-yl)-1,4-dihydropyrimidine-5-carboxylate], the inhibition at 0.5 µM (HBV; [2]) was 96%.

CCOC(=O)C1=C(CN2CCOC(C(=O)O)C2)NC(c2ncn(C)n2)=NC1c1ccc(F)cc1Br (stereo not drawn) [Example 83, 4-((6-(2-bromo-4-fluorophenyl)-5-(ethoxycarbonyl)-2-(1-methyl-1H-1,2,4-triazol-3-yl)-3,6-dihydropyrimidin-4-yl)methyl)morpholine-2-carboxylic acid] showed an inhibition at 0.5 µM (HBV; [2]) of 36%.

Work on CCOC(=O)C1=C(CN2CCOCC2C(=O)O)NC(c2nc(C(F)(F)F)cs2)=NC1c1ccc(Cl)cc1Cl (stereo not drawn) [Example 119, 4-((6-(2,4-dichlorophenyl)-5-(ethoxycarbonyl)-2-(4-(trifluoromethyl)thiazol-2-yl)-3,6-dihydropyrimidin-4-yl)methyl)morpholine-3-carboxylic acid] yielded an inhibition at 0.5 µM (HBV; [2]) of 94%.

CCOC(=O)C1=C(CN2CCOCC2C(=O)O)NC(c2ncc(F)s2)=NC1c1ccc(F)cc1Cl (stereo not drawn) [Example 121, 4-((6-(2-chloro-4-fluorophenyl)-5-(ethoxycarbonyl)-2-(5-fluorothiazol-2-yl)-3,6-dihydropyrimidin-4-yl)methyl)morpholine-3-carboxylic acid] showed an inhibition at 0.5 µM (HBV; [2]) of 48.5%.

For CCOC(=O)C1=C(CN2CCOCC2C(=O)O)NC(c2ncc(F)s2)=NC1c1ccc(Cl)cc1Cl (stereo not drawn) [Example 122, 4-((6-(2,4-dichlorophenyl)-5-(ethoxycarbonyl)-2-(5-fluorothiazol-2-yl)-3,6-dihydropyrimidin-4-yl)methyl)morpholine-3-carboxylic acid], the inhibition at 0.5 µM (HBV; [2]) was 46.2%.

For CCOC(=O)C1=C(CN2CCOCC2C(=O)O)NC(c2ncn(C)n2)=NC1c1ccc(F)cc1Br (stereo not drawn) [Example 123, 4-((6-(2-bromo-4-fluorophenyl)-5-(ethoxycarbonyl)-2-(1-methyl-1H-1,2,4-triazol-3-yl)-3,6-dihydropyrimidin-4-yl)methyl)morpholine-3-carboxylic acid], the inhibition at 0.5 µM (HBV; [2]) was 37.5%.

Compound CCOC(=O)C1=C(CN2CCOCC2C(=O)O)NC(c2nccn2C)=NC1c1ccc(F)cc1Br (stereo not drawn) [Example 125, 4-((6-(2-bromo-4-fluorophenyl)-5-(ethoxycarbonyl)-2-(1-methyl-1H-imidazol-2-yl)-3,6-dihydropyrimidin-4-yl)methyl)morpholine-3-carboxylic acid] has an inhibition at 0.5 µM (HBV; [2]) of 92.5%.

CCOC(=O)C1=C(CN2CCOC(CCCO)C2)NC(c2nccs2)=NC1c1ccc(F)cc1Br (stereo not drawn) [Example 133, Ethyl 4-(2-bromo-4-fluorophenyl)-6-((2-(3-hydroxypropyl)morpholino)methyl)-2-(thiazol-2-yl)-1,4-dihydropyrimidine-5-carboxylate] gave an inhibition at 0.5 µM (HBV; [2]) of 92.6%.

Compound CCOC(=O)C1=C(CN2CCOC(CCC(N)=O)C2)NC(c2nccs2)=NC1c1ccc(F)cc1Br (stereo not drawn) [Example 135, Ethyl 6-((2-(3-amino-3-oxopropyl)morpholino)methyl)-4-(2-bromo-4-fluorophenyl)-2-(thiazol-2-yl)-1,4-dihydropyrimidine-5-carboxylate] has an inhibition at 0.5 µM (HBV; [2]) of 93.3%.

Compound CCOC(=O)C1=C(CN2CCOCC2C(=O)NC)NC(c2nccs2)=NC1c1ccc(F)cc1Br (stereo not drawn) [Example 136, Ethyl 4-(2-bromo-4-fluorophenyl)-6-((3-(methylcarbamoyl)morpholino)methyl)-2-(thiazol-2-yl)-1,4-dihydropyrimidine-5-carboxylate] has an inhibition at 0.5 µM (HBV; [2]) of 95.8%.
